Results published in patent US20080009418A1, “Selective Inhibitors” (Alchemia LTD., priority 2004, published 2008).

Tests used:
Human δ-opioid (DOP) = target: T1, Human δ-opioid (DOP) (Homo sapiens, UniProt P41143); experiment: Radioligand binding, human δ-opioid (DOP) membranes, FlashPlate, [3H]-Bremazocine; details: compound at 10 μM; for A1: inhibition of radioligand binding / A1 radioligand binding, percentage inhibition: [3H]-Bremazocine
T1 construct: purchased Perkin Elmer Biosignal
Procedure, shortened: (§1)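 Cloned human receptor membranes were coated onto FlashPlate wells and incubated with radioligand and compound (added from a 0.5 mM DMSO daughter plate) for 1 hour at room temperature in the dark. Scintillation counting gave percent inhibition, with DMSO defining total and reference ligand defining non-specific binding.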

Human κ-Opioid (KOP) = target: T2, Human κ-Opioid (KOP) (Homo sapiens, UniProt P41145); experiment: Radioligand binding, human κ-opioid (KOP) membranes, filtration, [3H]-Diprenorphine; details: compound at 10 μM; for A2: inhibition of radioligand binding / A2 radioligand binding, percentage inhibition: [3H]-Diprenorphine
T2 construct: purchased Perkin Elmer Biosignal
Procedure, shortened: (§2)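 Percent inhibition of radioligand binding measured on recombinant human membranes: NK1 with [125I]-Substance P, KOP with [3H]-Diprenorphine. Incubation 1 h at room temperature, then harvest onto 0.3% PEI-soaked filters, cold Tris-HCl pH 7.4 washes and scintillation counting; non-specific binding from reference ligand wells.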

Human Melanocortin (MC3) = target: T3, Human Melanocortin (MC3) (Homo sapiens, UniProt P41968); experiment: Radioligand binding, human melanocortin MC3 membranes, FlashPlate, [125I]-NDP-αMSH; details: compound at 10 μM; for A3: inhibition of radioligand binding / A3 radioligand binding, percentage inhibition: [125I]-NDP-αMSH
T3 construct: purchased Perkin Elmer Biosignal
Procedure, shortened: as §1

Human Melanocortin (MC4) = target: T4, Human Melanocortin (MC4) (Homo sapiens, UniProt P32245); experiment: Radioligand binding, human melanocortin MC4 membranes, FlashPlate, [125I]-NDP-αMSH; details: compound at 10 μM; for A4: inhibition of radioligand binding / A4 radioligand binding, percentage inhibition: [125I]-NDP-αMSH
T4 construct: purchased Perkin Elmer Biosignal
Procedure, shortened: as §1

Human melanocortin (MC5) = target: T5, Human melanocortin (MC5) (Homo sapiens, UniProt P33032); experiment: Radioligand binding, human melanocortin MC5 membranes, FlashPlate, [125I]-NDP-αMSH; details: compound at 10 μM; for A5: inhibition of radioligand binding / A5 radioligand binding, percentage inhibition: [125I]-NDP-αMSH
T5 construct: purchased Perkin Elmer Biosignal
Procedure, shortened: as §1

[1] = target: T6, Human melanin-concentrating hormone (MCH1) (Homo sapiens, UniProt Q99705); experiment: Radioligand binding, human melanin-concentrating hormone MCH1 membranes, FlashPlate, [125I]-S36057; details: compound at 10 μM; for A6 radioligand binding, percentage inhibition: [125I]-S36057
T6 construct: purchased Perkin Elmer Biosignal
Procedure, shortened: as §1

Human μ-opioid (MOP) = target: T7, Human μ-opioid (MOP) (Homo sapiens, UniProt P35372); experiment: Radioligand binding, human μ-opioid (MOP) membranes, FlashPlate, [3H]-Naloxone; details: compound at 10 μM; for A7: inhibition of radioligand binding / A7 radioligand binding, percentage inhibition: [3H]-Naloxone
T7 construct: purchased Perkin Elmer Biosignal
Procedure, shortened: as §1

Human neurokinin (NK1) = target: T8, Human neurokinin (NK1) (Homo sapiens, UniProt P25103); experiment: Radioligand binding, human neurokinin NK1 membranes, filtration, [125I]-Substance P; details: compound at 10 μM; for A8: inhibition of radioligand binding / A8 radioligand binding, percentage inhibition: [125I]-Substance P
T8 construct: purchased Perkin Elmer Biosignal
Procedure, shortened: as §2

[2] = target: T9, Human neuropeptide Y (NPY-Y1) (Homo sapiens, UniProt P25929); experiment: Radioligand binding, human neuropeptide Y NPY-Y1 membranes, FlashPlate, [125I]-PYY; details: compound at 10 μM; for A9: inhibition of radioligand binding / A9 radioligand binding, percentage inhibition: [125I]-PYY
T9 construct: purchased Perkin Elmer Biosignal
T9 sequence (P25929 1-384): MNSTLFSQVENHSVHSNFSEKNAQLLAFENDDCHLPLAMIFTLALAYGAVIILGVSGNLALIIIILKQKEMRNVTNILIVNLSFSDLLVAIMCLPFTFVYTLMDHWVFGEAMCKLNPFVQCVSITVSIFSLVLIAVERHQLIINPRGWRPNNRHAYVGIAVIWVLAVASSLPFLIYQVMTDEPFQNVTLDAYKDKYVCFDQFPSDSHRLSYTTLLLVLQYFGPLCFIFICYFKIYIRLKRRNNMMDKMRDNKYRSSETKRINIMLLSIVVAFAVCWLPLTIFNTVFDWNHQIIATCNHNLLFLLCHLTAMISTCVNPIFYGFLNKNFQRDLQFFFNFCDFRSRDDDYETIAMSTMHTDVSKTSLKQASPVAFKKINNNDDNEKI
Procedure, shortened: as §1

Human opioid (ORL1) = target: T10, Human opioid (ORL1) (Homo sapiens, UniProt P41146); experiment: Radioligand binding, human opioid ORL1 membranes, FlashPlate, [125I]-Nociceptin; details: compound at 10 μM; for A10: inhibition of radioligand binding / A10 radioligand binding, percentage inhibition: [125I]-Nociceptin
T10 construct: purchased Perkin Elmer Biosignal
Procedure, shortened: as §1

Mouse urotensin (mUR2) = target: T11, Mouse urotensin (mUR2) (Mus musculus, UniProt Q8VIH9); experiment: Radioligand binding, mouse urotensin mUR2 membranes, FlashPlate, [125I]-Urotensin II; details: compound at 10 μM; for A11: inhibition of radioligand binding / A11 radioligand binding, percentage inhibition: [125I]-Urotensin II
T11 construct: purchased Perkin Elmer Biosignal
T11 sequence (Q8VIH9 1-385): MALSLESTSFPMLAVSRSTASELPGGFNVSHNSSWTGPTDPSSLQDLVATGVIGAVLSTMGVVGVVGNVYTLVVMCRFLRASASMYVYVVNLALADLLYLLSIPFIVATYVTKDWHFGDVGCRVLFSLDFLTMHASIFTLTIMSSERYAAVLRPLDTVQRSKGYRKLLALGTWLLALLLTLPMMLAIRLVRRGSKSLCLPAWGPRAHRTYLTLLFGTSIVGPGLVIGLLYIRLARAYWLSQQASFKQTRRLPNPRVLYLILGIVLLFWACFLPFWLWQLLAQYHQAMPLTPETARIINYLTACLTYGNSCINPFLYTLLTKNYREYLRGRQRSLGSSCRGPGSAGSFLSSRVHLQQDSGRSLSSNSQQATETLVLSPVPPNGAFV
Procedure, shortened: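 Cloned mouse urotensin (mUR2) receptor membranes from Perkin Elmer Biosignal were immobilized in FlashPlate microplates using a proprietary coating. Each well got 19.5 μl buffer, then 0.5 μl of DMSO, reference ligand, or compound. Adding 5 μl of [125I]-Urotensin II, diluted to 5× final concentration in binding buffer, started binding. Plates were sealed with TopSeal-A and incubated 1 hour at room temperature in the dark. Wells were counted for 30 seconds each on a TopCount after a 60-second delay, and percentage inhibition was calculated.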

T1 sequence (P41143 whole entry): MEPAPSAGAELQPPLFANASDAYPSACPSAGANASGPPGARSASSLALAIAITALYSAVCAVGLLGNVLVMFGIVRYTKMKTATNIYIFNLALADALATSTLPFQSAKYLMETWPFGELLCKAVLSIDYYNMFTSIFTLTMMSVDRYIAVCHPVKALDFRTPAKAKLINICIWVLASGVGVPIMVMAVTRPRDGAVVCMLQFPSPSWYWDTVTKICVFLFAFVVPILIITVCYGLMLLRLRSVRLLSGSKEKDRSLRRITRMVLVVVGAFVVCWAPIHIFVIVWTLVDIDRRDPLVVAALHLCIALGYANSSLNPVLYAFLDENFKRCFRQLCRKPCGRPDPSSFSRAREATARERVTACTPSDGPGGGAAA
T6 sequence (Q99705 whole entry): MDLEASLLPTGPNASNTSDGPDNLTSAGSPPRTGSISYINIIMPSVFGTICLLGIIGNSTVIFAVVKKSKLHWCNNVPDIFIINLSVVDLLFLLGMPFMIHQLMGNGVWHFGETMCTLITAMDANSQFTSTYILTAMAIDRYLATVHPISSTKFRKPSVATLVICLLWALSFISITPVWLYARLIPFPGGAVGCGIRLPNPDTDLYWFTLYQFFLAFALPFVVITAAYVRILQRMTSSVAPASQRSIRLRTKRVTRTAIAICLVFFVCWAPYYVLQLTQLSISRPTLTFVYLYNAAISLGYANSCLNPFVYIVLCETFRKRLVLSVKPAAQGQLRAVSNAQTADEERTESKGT
T2 sequence (P41145 whole entry): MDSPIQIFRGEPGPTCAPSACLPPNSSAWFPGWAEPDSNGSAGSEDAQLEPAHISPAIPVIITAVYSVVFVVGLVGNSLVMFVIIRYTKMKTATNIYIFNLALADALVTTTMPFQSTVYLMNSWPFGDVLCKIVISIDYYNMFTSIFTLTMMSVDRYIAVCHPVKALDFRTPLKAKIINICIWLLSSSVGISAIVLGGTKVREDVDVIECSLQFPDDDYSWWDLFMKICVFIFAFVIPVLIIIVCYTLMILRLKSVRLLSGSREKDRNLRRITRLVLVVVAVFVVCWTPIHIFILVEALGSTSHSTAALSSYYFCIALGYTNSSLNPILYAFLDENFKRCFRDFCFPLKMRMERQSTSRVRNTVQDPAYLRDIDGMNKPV
T5 sequence (P33032 whole entry): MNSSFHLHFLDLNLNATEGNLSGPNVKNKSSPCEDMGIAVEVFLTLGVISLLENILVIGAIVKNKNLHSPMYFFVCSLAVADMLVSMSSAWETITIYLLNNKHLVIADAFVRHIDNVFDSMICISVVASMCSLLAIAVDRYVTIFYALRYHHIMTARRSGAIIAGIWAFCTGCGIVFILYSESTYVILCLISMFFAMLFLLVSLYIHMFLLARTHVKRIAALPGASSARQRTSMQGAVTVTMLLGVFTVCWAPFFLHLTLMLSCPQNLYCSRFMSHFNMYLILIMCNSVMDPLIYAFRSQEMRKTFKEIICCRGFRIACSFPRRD
T8 sequence (P25103 whole entry): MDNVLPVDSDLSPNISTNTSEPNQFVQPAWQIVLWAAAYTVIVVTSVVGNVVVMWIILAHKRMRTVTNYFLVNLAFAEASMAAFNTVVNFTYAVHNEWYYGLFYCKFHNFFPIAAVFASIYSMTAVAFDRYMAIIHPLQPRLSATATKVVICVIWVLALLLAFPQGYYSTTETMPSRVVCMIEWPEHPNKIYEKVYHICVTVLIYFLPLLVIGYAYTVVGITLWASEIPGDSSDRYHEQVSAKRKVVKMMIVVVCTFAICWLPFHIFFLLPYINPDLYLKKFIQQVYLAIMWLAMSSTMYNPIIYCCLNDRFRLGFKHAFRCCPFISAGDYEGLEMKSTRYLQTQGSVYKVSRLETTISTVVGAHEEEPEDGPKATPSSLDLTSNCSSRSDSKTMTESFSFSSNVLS
T3 sequence (P41968 whole entry): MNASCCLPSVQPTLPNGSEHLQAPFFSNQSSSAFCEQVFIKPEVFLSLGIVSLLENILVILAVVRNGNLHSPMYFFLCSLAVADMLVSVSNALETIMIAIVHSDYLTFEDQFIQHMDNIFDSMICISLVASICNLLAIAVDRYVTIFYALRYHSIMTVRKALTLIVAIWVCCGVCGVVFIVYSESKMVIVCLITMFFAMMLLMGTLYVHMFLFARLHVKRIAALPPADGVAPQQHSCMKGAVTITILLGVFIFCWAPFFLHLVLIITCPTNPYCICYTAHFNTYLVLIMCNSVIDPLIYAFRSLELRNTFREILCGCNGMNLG
T10 sequence (P41146 whole entry): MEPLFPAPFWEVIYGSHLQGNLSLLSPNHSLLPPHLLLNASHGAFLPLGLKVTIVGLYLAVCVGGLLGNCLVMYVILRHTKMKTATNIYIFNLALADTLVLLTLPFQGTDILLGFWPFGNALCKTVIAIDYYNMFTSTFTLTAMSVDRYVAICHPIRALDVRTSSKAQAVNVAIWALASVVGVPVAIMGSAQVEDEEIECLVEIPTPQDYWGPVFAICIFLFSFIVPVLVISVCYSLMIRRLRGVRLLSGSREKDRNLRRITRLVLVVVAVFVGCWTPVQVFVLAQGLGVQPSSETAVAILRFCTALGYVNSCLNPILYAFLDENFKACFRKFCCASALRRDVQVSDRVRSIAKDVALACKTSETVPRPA
T7 sequence (P35372 whole entry): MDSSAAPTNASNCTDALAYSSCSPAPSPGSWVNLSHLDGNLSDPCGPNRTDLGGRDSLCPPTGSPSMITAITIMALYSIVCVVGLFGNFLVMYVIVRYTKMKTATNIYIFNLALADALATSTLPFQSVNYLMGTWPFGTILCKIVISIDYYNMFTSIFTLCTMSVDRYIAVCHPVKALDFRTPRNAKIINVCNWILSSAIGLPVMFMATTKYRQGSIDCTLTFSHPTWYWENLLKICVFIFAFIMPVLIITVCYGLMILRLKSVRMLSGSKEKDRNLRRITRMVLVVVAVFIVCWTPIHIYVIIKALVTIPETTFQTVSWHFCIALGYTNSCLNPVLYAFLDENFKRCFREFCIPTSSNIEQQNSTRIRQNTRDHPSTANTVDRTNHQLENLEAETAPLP
T4 sequence (P32245 whole entry): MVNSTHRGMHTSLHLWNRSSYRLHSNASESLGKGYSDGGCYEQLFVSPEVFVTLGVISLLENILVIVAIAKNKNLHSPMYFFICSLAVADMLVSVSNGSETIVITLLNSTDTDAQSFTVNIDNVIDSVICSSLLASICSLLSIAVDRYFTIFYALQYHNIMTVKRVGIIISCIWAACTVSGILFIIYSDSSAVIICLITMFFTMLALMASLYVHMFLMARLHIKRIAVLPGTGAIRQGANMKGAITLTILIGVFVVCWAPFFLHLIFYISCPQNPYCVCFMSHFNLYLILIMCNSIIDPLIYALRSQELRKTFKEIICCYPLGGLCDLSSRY

## CSC1OC(COCc2ccc3ccccc3c2)C(O)C(OCc2ccccc2)C1NC(=O)CCNC(=N)N (stereo not shown) [compound 262]
Human δ-opioid (DOP); FlashPlate
  A1: inhibition of radioligand binding: − (“−” indicates less than 50% inhibition at 10 μM)
Human κ-Opioid (KOP); filtration
  A2: inhibition of radioligand binding: − (“−” indicates less than 50% inhibition at 10 μM)
Human Melanocortin (MC3); FlashPlate
  A3: inhibition of radioligand binding: − (“−” indicates less than 50% inhibition at 10 μM)
Human Melanocortin (MC4); FlashPlate
  A4: inhibition of radioligand binding: − (“−” indicates less than 50% inhibition at 10 μM)
Human melanocortin (MC5); FlashPlate
  A5: inhibition of radioligand binding: + (“+” indicates greater than 50% inhibition at 10 μM)
[1]; [125I]-S36057, FlashPlate
  A6: inhibition of radioligand binding: − (“−” indicates less than 50% inhibition at 10 μM)
Human μ-opioid (MOP); FlashPlate
  A7: inhibition of radioligand binding: − (“−” indicates less than 50% inhibition at 10 μM)
Human neurokinin (NK1); filtration
  A8: inhibition of radioligand binding: + (“+” indicates greater than 50% inhibition at 10 μM)
[2]; FlashPlate
  A9: inhibition of radioligand binding: − (“−” indicates less than 50% inhibition at 10 μM)
Human opioid (ORL1); FlashPlate
  A10: inhibition of radioligand binding: − (“−” indicates less than 50% inhibition at 10 μM)
Mouse urotensin (mUR2); FlashPlate
  A11: inhibition of radioligand binding: − (“−” indicates less than 50% inhibition at 10 μM)

## CO[C@H]1[C@H](O)[C@@H](COCc2ccccc2)OC(OCc2ccc(-c3ccccc3)cc2)[C@@H]1NC(=O)CCCN (stereo partly shown) [compound 60]
Human δ-opioid (DOP); human δ-opioid (DOP) membranes
  A1 radioligand binding inhibition: − (“−” indicates less than 50% inhibition at 10 μM)
Human κ-Opioid (KOP); human κ-opioid (KOP) membranes
  A2 radioligand binding inhibition: − (“−” indicates less than 50% inhibition at 10 μM)
Human Melanocortin (MC3); human melanocortin MC3 membranes
  A3 radioligand binding inhibition: − (“−” indicates less than 50% inhibition at 10 μM)
Human Melanocortin (MC4); human melanocortin MC4 membranes
  A4 radioligand binding inhibition: − (“−” indicates less than 50% inhibition at 10 μM)
Human melanocortin (MC5); human melanocortin MC5 membranes
  A5 radioligand binding inhibition: + (“+” indicates greater than 50% inhibition at 10 μM)
[1]; human MCH1 membranes
  A6 radioligand binding inhibition: − (“−” indicates less than 50% inhibition at 10 μM)
Human μ-opioid (MOP); human μ-opioid (MOP) membranes
  A7 radioligand binding inhibition: − (“−” indicates less than 50% inhibition at 10 μM)
Human neurokinin (NK1); human neurokinin NK1 membranes
  A8 radioligand binding inhibition: − (“−” indicates less than 50% inhibition at 10 μM)
[2]; human NPY-Y1 membranes
  A9 radioligand binding inhibition: − (“−” indicates less than 50% inhibition at 10 μM)
Human opioid (ORL1); human ORL1 membranes
  A10 radioligand binding inhibition: − (“−” indicates less than 50% inhibition at 10 μM)
Mouse urotensin (mUR2); mouse urotensin mUR2 membranes
  A11 radioligand binding inhibition: − (“−” indicates less than 50% inhibition at 10 μM)

## NCCCC(=O)NC1C(OCc2ccc3ccccc3c2)OC(COCc2ccc(Cl)cc2)C(O)C1OCc1ccc(Cl)cc1 (single isomer, unassigned) [compound 459]
Human δ-opioid (DOP); human DOP membranes
  A1: inhibition of radioligand binding: − (“−” indicates less than 50% inhibition at 10 μM)
Human κ-Opioid (KOP); human KOP membranes
  A2: inhibition of radioligand binding: − (“−” indicates less than 50% inhibition at 10 μM)
Human Melanocortin (MC3); human MC3 membranes
  A3: inhibition of radioligand binding: + (“+” indicates greater than 50% inhibition at 10 μM)
Human Melanocortin (MC4); human MC4 membranes
  A4: inhibition of radioligand binding: + (“+” indicates greater than 50% inhibition at 10 μM)
Human melanocortin (MC5); human MC5 membranes
  A5: inhibition of radioligand binding: + (“+” indicates greater than 50% inhibition at 10 μM)
[1]; [125I]-S36057, human MCH1 membranes, 10 µM
  A6: inhibition of radioligand binding: + (“+” indicates greater than 50% inhibition at 10 μM)
Human μ-opioid (MOP); human MOP membranes, 10 µM
  A7: inhibition of radioligand binding: − (“−” indicates less than 50% inhibition at 10 μM)
Human neurokinin (NK1); human NK1 membranes
  A8: inhibition of radioligand binding: + (“+” indicates greater than 50% inhibition at 10 μM)
[2]; human NPY-Y1 membranes
  A9: inhibition of radioligand binding: − (“−” indicates less than 50% inhibition at 10 μM)
Human opioid (ORL1); human ORL1 membranes, 10 µM
  A10: inhibition of radioligand binding: + (“+” indicates greater than 50% inhibition at 10 μM)
Mouse urotensin (mUR2); mouse mUR2 membranes
  A11: inhibition of radioligand binding: − (“−” indicates less than 50% inhibition at 10 μM)

## CO[C@H]1[C@H](O)[C@@H](COCc2ccc(-c3ccccc3)cc2)OC(OCCc2ccccc2)[C@@H]1NC(=O)CNC(=N)N (stereo partly shown) [compound 109]
Human δ-opioid (DOP)
  A1 radioligand binding, percentage inhibition: − (“−” indicates less than 50% inhibition at 10 μM)
Human κ-Opioid (KOP)
  A2 radioligand binding, percentage inhibition: − (“−” indicates less than 50% inhibition at 10 μM)
Human Melanocortin (MC3)
  A3 radioligand binding, percentage inhibition: + (“+” indicates greater than 50% inhibition at 10 μM)
Human Melanocortin (MC4)
  A4 radioligand binding, percentage inhibition: + (“+” indicates greater than 50% inhibition at 10 μM)
Human melanocortin (MC5)
  A5 radioligand binding, percentage inhibition: + (“+” indicates greater than 50% inhibition at 10 μM)
[1]
  A6 radioligand binding, percentage inhibition: − (“−” indicates less than 50% inhibition at 10 μM)
Human μ-opioid (MOP)
  A7 radioligand binding, percentage inhibition: − (“−” indicates less than 50% inhibition at 10 μM)
Human neurokinin (NK1)
  A8 radioligand binding, percentage inhibition: − (“−” indicates less than 50% inhibition at 10 μM)
[2]
  A9 radioligand binding, percentage inhibition: − (“−” indicates less than 50% inhibition at 10 μM)
Human opioid (ORL1)
  A10 radioligand binding, percentage inhibition: − (“−” indicates less than 50% inhibition at 10 μM)
Mouse urotensin (mUR2)
  A11 radioligand binding, percentage inhibition: − (“−” indicates less than 50% inhibition at 10 μM)

## COCC1OC(OCc2ccccc2)C(NC(=O)CNC(=N)N)C(OCc2ccccc2)C1O (stereo not shown) [compound 171]
Human δ-opioid (DOP)
  A1 radioligand binding, percentage inhibition: − (“−” indicates less than 50% inhibition at 10 μM)
Human κ-Opioid (KOP)
  A2 radioligand binding, percentage inhibition: − (“−” indicates less than 50% inhibition at 10 μM)
Human Melanocortin (MC3)
  A3 radioligand binding, percentage inhibition: − (“−” indicates less than 50% inhibition at 10 μM)
Human Melanocortin (MC4)
  A4 radioligand binding, percentage inhibition: − (“−” indicates less than 50% inhibition at 10 μM)
Human melanocortin (MC5)
  A5 radioligand binding, percentage inhibition: + (“+” indicates greater than 50% inhibition at 10 μM)
[1]
  A6 radioligand binding, percentage inhibition: − (“−” indicates less than 50% inhibition at 10 μM)
Human μ-opioid (MOP)
  A7 radioligand binding, percentage inhibition: − (“−” indicates less than 50% inhibition at 10 μM)
Human neurokinin (NK1)
  A8 radioligand binding, percentage inhibition: + (“+” indicates greater than 50% inhibition at 10 μM)
[2]
  A9 radioligand binding, percentage inhibition: − (“−” indicates less than 50% inhibition at 10 μM)
Human opioid (ORL1)
  A10 radioligand binding, percentage inhibition: − (“−” indicates less than 50% inhibition at 10 μM)
Mouse urotensin (mUR2)
  A11 radioligand binding, percentage inhibition: − (“−” indicates less than 50% inhibition at 10 μM)
